Each structure is given as a SMILES string.

Consider one compound from article PMC2360532, “Somatostatin receptor expression, tumour response, and quality of life in patients with advanced hepatocellular carcinoma treated with long-acting octreotide” (British Journal of Cancer, 2006).

A short description of one data set: clinical. Conditions: human, plasma, im, 20 mg.
A further data set deals with HCC. The conditions noted are these: ref Kouroumalis et al (1998), cited from earlier work. The text has this:
High-affinity somatostatin receptors capable of binding octreotide are present in approximately 40% of HCC, and not in adjacent liver. However, the numbers of high-affinity receptors are lower than reported for neuroendocrine tumours ([Reubi et al, 1999]). Somatostatin is a potent inhibitor of several growth factors and angioneogenesis ([Flori ... || Most patients with advanced HCC have a dismal prognosis ([Leung and Johnson, 2001]). However, a treatment that benefits only a subset of patients may still be clinically worthwhile. The very different outcomes in the randomised trials by Kouroumalis and Yuen probably reflect differences in patient selection ([Kouroumalis et al, 1998]; [Yuen et al, 2002]). The Yuen study had subjects with more advanced disease, a higher proportion with viral hepatitis, and a median survival of only 2 months. Our study population was more similar to the Kouroumalis study population (Table 4) and our median survi ...

For data set [1] the following is noted: cited from earlier work. The text has this: Safety is important for people with comorbidities. There is limited information available about the elimination kinetics of octreotide in cirrhosis. […] Since pharmacokinetics may be altered in patients with cirrhosis, it was considered necessary to determine whether liver impairment predisposes to toxicity and ...

Data set [2] has as its system patients with advanced HCC. Briefly: Serious adverse events and tolerability. The data set is classed as in vivo, human. As for the experimental part: The planned duration of treatment was 12 months in the absence of disease progression, unacceptable toxicity, or withdrawal at the patient's or doctor's discretion. An extension phase allowed treatment to continue beyond 12 months on an individual basis at the discretion of the principal investigator.
Subjects were seen monthly for clinical review, blood tests, and administration of the study drug. Response was assessed using the RECIST (response evaluation criteria in solid tumours) criteria ([Therasse et al, 2000]). Radiological assessment was undertaken 3-monthly and any partial or complete responses were confirmed 1 month later.

The conditions of data set [3]: patients who remained on the study for 6 months or more.
Description: (§1) Blood was also sampled for octreotide pharmacokinetics and assessment of chromogranin A levels before the 4th and 7th doses.
(§2) Samples were taken immediately before the 4th and 7th doses of octreotide (weeks 12 and 24 of treatment). These time points were selected in order to assess trough octreotide plasma concentrations at steady state after three doses and to determine potential octreotide accumulation in this cirrhotic population with more continued dosing. Additional samples were also collected in some cases. […] The lower limit of quantification was 50 pg ml^−1 for a 50 μl plasma sample.
Setting [4] is: short-acting form, ref Jenkins et al (1998).

Description for clinical: as §1, §2

For `C[C@@H](O)[C@@H]1NC(=O)[C@H](CCCCN)NC(=O)[C@@H](Cc2c[nH]c3ccccc23)NC(=O)[C@H](Cc2ccccc2)NC(=O)[C@@H](NC(=O)[C@H](N)Cc2ccccc2)CSSC[C@@H](C(=O)N[C@H](CO)[C@@H](C)O)NC1=O` [octreotide], in “clinical”, the level at 2016 h was determined as 2.21 ng/mL, the level at 4032 h amounted to 3.38 ng/mL and the level at 6480 h amounted to 3.24 ng/mL. Further, the Median survival with HCC (short-acting octreotide arm vs 4 months in untreated control, HCC) is 13 months. Further, the 12-month survival in the data set with HCC (short-acting octreotide arm vs 13% in untreated control, P=0.002) is recorded as 56%. Besides, the Plasma concentrations in data set [1] (30 mg i.m. dose, six patients with acromegaly (noncirrhotic), ref Stewart et al, 1995) is 1.682 ± 0.174 ng/mL. Also, in data set [1] (setting [4]), the “Clearance in patients with cirrhosis” value was “reduced” and the “Half-life in patients with cirrhosis” value was “prolonged”. For the same compound, in data set [2] (20 mg i.m. every 28 days, advanced HCC), the “Serious adverse events attributed to the drug” value is “No serious adverse events were attributed”. Further, the “Treatment stopped because of adverse effects (cramps), cases” value in data set [2] (63 patients) is given as “one”. Moreover, the “Accumulation of octreotide in plasma” value in data set [3] is on record as “no evidence of accumulation”.
